Drawing on BindingDB's records for doi:10.1021/jm0201924 (Senju Pharmaceutical, 2003), this text covers IC50 for twelve molecules.

Usually IC50 stands for the concentration that gives 50% inhibition.

The target in the test is Calpain-1 (Sus scrofa). Description: In vitro inhibition of porcine mu-calpain.

Structures are written as SMILES.

Molecule `CC(C)C[C@H](C=O)NC(=O)[C@@H](NS(=O)(=O)c1ccc2ccccc2c1)C(C)C` [N-(1-Formyl-3-methyl-butyl)-3-methyl-2-(naphthalene-2-sulfonylamino)-butyramide] came in with an IC50 of 10 nM.

As to `Cc1ccc(S(=O)(=O)N[C@H](C(=O)N[C@@H](C=O)CC(C)C)C(C)C)cc1` [N-(1-Formyl-3-methyl-butyl)-3-methyl-2-(toluene-4-sulfonylamino)-butyramide], half-maximal inhibition (IC50) was put at 28 nM. For `CC(C)[C@H](NS(=O)(=O)c1ccc(F)cc1)C(=O)N[C@H](C)C=O` [2-(4-Fluoro-benzenesulfonylamino)-3-methyl-N-(1-methyl-2-oxo-ethyl)-butyramide] the value was 630 nM; for `CC(C)[C@H](NS(=O)(=O)c1ccc(F)cc1)C(=O)N[C@@H](C=O)Cc1c[nH]c2ccccc12` [2-(4-Fluoro-benzenesulfonylamino)-N-[1-formyl-2-(1H-indol-3-yl)-ethyl]-3-methyl-butyramide], 23 nM. Regarding `CC(C)C[C@H](C=O)NC(=O)[C@@H](NS(=O)(=O)c1ccc(Cl)cc1)C(C)C` [2-(4-Chloro-benzenesulfonylamino)-N-(1-formyl-3-methyl-butyl)-3-methyl-butyramide], the IC50 turned out to be 31 nM.

Turning to `CC(C)[C@H](NS(=O)(=O)c1ccc2ccccc2c1)C(=O)N[C@@H](C=O)Cc1ccccc1` [N-(1-Formyl-2-phenyl-ethyl)-3-methyl-2-(naphthalene-2-sulfonylamino)-butyramide], the IC50 was found to be 14 nM.

`CC(C)[C@H](NS(=O)(=O)c1ccc(Cl)cc1)C(=O)N[C@@H](C=O)Cc1ccccc1` [2-(4-Chloro-benzenesulfonylamino)-N-(1-formyl-2-phenyl-ethyl)-3-methyl-butyramide]: the 50% inhibitory concentration (IC50) amounted to 14 nM. Regarding `CC(C)C[C@H](C=O)NC(=O)[C@H](C(C)C)N(C)S(=O)(=O)c1ccc(F)cc1` [2-[(4-Fluoro-benzenesulfonyl)-methyl-amino]-N-(1-formyl-3-methyl-butyl)-3-methyl-butyramide], the IC50 was determined as 21000 nM. As for `CC(C)[C@H](NS(=O)(=O)c1ccc(Cl)cc1)C(=O)N[C@@H](C=O)Cc1c[nH]c2ccccc12` [2-(4-Chloro-benzenesulfonylamino)-N-[1-formyl-2-(1H-indol-3-yl)-ethyl]-3-methyl-butyramide], the figure is 13 nM; as for `CC(C)C[C@H](C=O)NC(=O)[C@@H](NS(C)(=O)=O)C(C)C` [N-(1-Formyl-3-methyl-butyl)-2-methanesulfonylamino-3-methyl-butyramide], 830 nM. For `CC(C)[C@H](NS(=O)(=O)c1ccc(F)cc1)C(=O)N[C@@H](C=O)Cc1ccccc1` [2-(4-Fluoro-benzenesulfonylamino)-N-(1-formyl-2-phenyl-ethyl)-3-methyl-butyramide] the value was 27 nM; for `Cc1ccc(S(=O)(=O)N[C@H](C(=O)N[C@@H](C=O)Cc2ccccc2)C(C)C)cc1` [N-(1-Formyl-2-phenyl-ethyl)-3-methyl-2-(toluene-4-sulfonylamino)-butyramide], 18 nM.
